The experiment relates to hairy hoof warts. Kind of experiment: Footwrap application of aspirin compositions to infected hoofs of cows with hairy hoof warts. Type of experiment: in vivo. Particulars: topical; for healing of hairy hoof wart infections (result in words): 23 cubic centimeters in a footwrap left on the hoof about fourteen days. How it is done:
In testing the method of the subject invention on cows with hairy hoof warts, an aspirin composition (100% aspirin powder) was administered to the infected hoof by incorporating the aspirin into a conventional footwrap and wrapping the footwrap about an animal's hoof so that the aspirin was applied to an infected area of an animal's hoof. The aspirin composition of the subject invention that includes about 75% by weight aspirin powder, about 5% by weight hydrated lime, about 15% by weight sodium bentonite, and about 5% by weight chalk was also tested in the same manner. With the application of the aspirin compositions to the infected hoof areas by this method, the infection progressively diminished and the hairy hoof warts were typically healed within about fourteen days. In the method of the subject invention for treating anchor preventing hairy hoof warts, an aspirin composition of 100% aspirin, a composition of another compound or derivative of salicylic acid of 100% of the other compound or derivative, an aspirin containing composition, or a composition containing another compound or derivative of salicylic acid is administered in an effective amount to an infected area of an animal's hoof or, as a preventive measure, to an area of an animal's hoof that could be infected. In a preferred embodiment of the method of the subject invention, the composition of or containing aspirin or another compound or derivative of salicylic acid is incorporated into a conventional footwrap, such as but not limited to a footwrap sold by Minnesota Mining and Manufacturing under the trade designation “[…]”. The footwrap is then applied to an animal's hoof with the composition being applied to the infected area of the hoof or, as a preventive measure, to an area of potential hoof infection. […]

Take `CC(=O)Oc1ccccc1C(=O)O` [100% aspirin powder, aspirin]: the “healing of hairy hoof wart infections (result in words)” value is, setting by setting: (listed as 100% powdered aspirin composition) “successful in healing even severe hairy hoof wart infections”; (listed as aspirin composition of 100% aspirin) “appeared to achieve the best results”. Besides, for the setting “composition in a conventional footwrap on the infected hoof area, typical value”, the “time until the hairy hoof warts were healed” value is “fourteen”.

The record behind these values is US6863898B2, “Method and composition for treating hairy hoof warts” (priority 2002, dated 2005).
